Assay results taken from PMC7140380, “Magnolia extract is effective for the chemoprevention of oral cancer through its ability to inhibit mitochondrial respiration at complex I” (Cell Communication and Signaling : CCS, 2020).
Where two headings read alike, the source gives them in different places.

Assays:
CAL 27 cells = assay: Cell proliferation assay (IncuCyte real-time cell confluence); assay type: cell-based; settings: Homo sapiens
Procedure: Cells were seeded in 96-well tissue culture plates at 1000–3000 cells per well. Twenty-four hours after seeding, cells were exposed to various concentrations of ME, whereas control cells received fresh medium with an equivalent amount of dimethyl sulfoxide (DMSO) vehicle. Plates were incubated at 37 °C under 5% CO2 and monitored using the IncuCyte Live Cell analysis system (Essen Bioscience, Ann Arbor, MI). […] All assays were performed in triplicate or quadruplicate.

STAT3 = assay: Western blot, STAT3 phosphorylation in CAL 27 cells; assay type: cell-based, human; settings: single agents at concentrations close to their IC50 (HNK 20 μM, MGN 40 μM, MHNK 20 μM)
Procedure: (§1) CAL 27 cells were treated with vehicle control (DMSO), HNK (20 μM), MGN (40 μM), and MHNK (20 μM) for 4 h and then lysed with a lysis buffer containing a proteinase inhibitor cocktail (Cell Signaling Technology, Danvers, MA), sheared 10 times by passage through a 28-gauge needle, and centrifuged at 16,000 g for 30 min; the protein concentration of the supernatant was determined by the Bradford method. Lysates, normalized for equal protein loading, were analyzed by the PathScan RTK Signaling Array (Cell Signaling Technology, Danvers, MA) and the LI-COR Odyssey infrared imaging system (LI-COR Biosciences-Biotechnology, Lincoln, NE).
(§2) Cells were lysed with RIPA buffer containing a proteinase inhibitor cocktail (Fisher Scientific, Pittsburg, PA), sheared 10 times by passage through a 28-gauge needle, and centrifuged at 16,000 g for 30 min; the supernatants were normalized for protein concentration as determined by the Bradford method. Lysates were boiled for 5 min and resolved on 4–12% sodium dodecyl sulfate polyacrylamide gel electrophoresis (SDS-PAGE) gels (Invitrogen, Carlsbad, CA). The blots were probed with the following primary antibodies from Cell Signaling Technology (Danvers, MA): p-STAT3-Tyr705, p-STAT3-Ser727, HKII, P70, and P70S6K. The following antibodies were from Santa Cruz Biotechnology (Dallas, TX): anti-actin, anti-Prx1 and anti-Prx3.

p70S6K = assay: Western blot, p70S6K phosphorylation in CAL 27 cells; assay type: cell-based, human; settings: single agents at concentrations close to their IC50 (HNK 20 μM, MGN 40 μM, MHNK 20 μM)
Procedure: as §1, §2

hexokinase II (HKII) = assay: Western blot, HKII levels in CAL 27 cells; assay type: cell-based, human; settings: single agents at concentrations close to their IC50 (HNK 20 μM, MGN 40 μM, MHNK 20 μM)
Procedure: as §1, §2

4NQO-induced oral cancer = assay: 4NQO-induced oral carcinogenesis in C57BL/6 J mice; assay type: in vivo; settings: 20 mg/kg oral
Procedure: Oral tumors were induced by exposing mice to 4NQO at a dose of 50 μg/mL in drinking water for 16 consecutive weeks. One week following the first dose of 4NQO, mice were given ME or the individual active components in ME via oral administration (five days/week for the next 20 consecutive weeks). Animal body weights and 4NQO-water consumption were monitored weekly. 21 weeks after the start of 4NQO treatment, mice were imaged by MRI. Mice were euthanized and oral tissues were collected to assess total oral tumor volume (sum of V) for each mouse. A portion of normal appearing tissue and oral tumor from each mouse were flash frozen in liquid nitrogen for molecular analysis. Remaining oral tissues were embedded in paraffin for pathologic analysis as previously described and for immunohistochemistry (IHC) analysis of biomarkers. In addition, the oral cavity, esophagus, stomach/forestomach, lung, and other major organs were examined carefully for any signs of abnormality.
Mice were imaged using a 9.4 T MRI (Bruker, Billerica, MA) with a custom birdcage style Quadrature coil (Doty Scientific, Columbia, SC). Mice were anesthetized (2 min) initially in a chamber using a mixture of oxygen (3 L/min) and isofluorane (4%). Once an animal was fully anesthetized, optical lubricant was placed on each eye to prevent drying. […]

[1] = CAL-27, read-out: IC50 as single agents, cell proliferation

SMILES | IC50 (CAL 27 cells; CAL 27 cells, single agents, read-out: IC50 as single agents, cell proliferation) | phosphorylation of STAT3 (p-STAT3 Ser727) (STAT3) | IC50 (CAL 27 cells; [1]) | phosphorylation of p70S6K (p70S6K) | levels of hexokinase II (HKII) (hexokinase II (HKII)) | suppression of 4NQO-induced oral tumors as sole agent, compared with the other single agents (4NQO-induced oral cancer)
C=CCc1ccc(O)c(-c2ccc(O)c(CC=C)c2)c1 [HNK, 5,3′-diallyl-2,4′-dihydroxybiphenyl] | 19 µM | inhibited |  |  |  | 
C=CCc1ccc(O)c(-c2cc(CC=C)ccc2O)c1 [MGN, 5,5′-diallyl-2,2′-dihydroxybiphenyl] |  |  | 49 µM | inhibited |  | 
C=CCc1ccc(O)c(-c2ccc(OC)c(CC=C)c2)c1 [MHNK, 3,5′-diallyl-2′-hydroxy-4-methoxybiphenyl] |  |  | 19 µM |  | decreased | greatest effect
